“Also recorded” adds a separate entry of the source.
What was measured:
[1] = target: T1, rat DPD phosphodiesterase (Rattus norvegicus, UniProt P14646); assay: Phosphodiesterase activity assay, cell free extract of 10 DAB yeast expressing rat DPD; assay type: biochemical; details: for Inhibition (%): DPD-1 extract
T1 construct: A large open reading frame of 562 codons was found; The first ATG appears at codon 46; made in house; host or cells: S. cerevisiae strain 10 DAB (pde1- pde2-) transformed with pADPD, cell free extract
T1 sequence (P14646 220-736): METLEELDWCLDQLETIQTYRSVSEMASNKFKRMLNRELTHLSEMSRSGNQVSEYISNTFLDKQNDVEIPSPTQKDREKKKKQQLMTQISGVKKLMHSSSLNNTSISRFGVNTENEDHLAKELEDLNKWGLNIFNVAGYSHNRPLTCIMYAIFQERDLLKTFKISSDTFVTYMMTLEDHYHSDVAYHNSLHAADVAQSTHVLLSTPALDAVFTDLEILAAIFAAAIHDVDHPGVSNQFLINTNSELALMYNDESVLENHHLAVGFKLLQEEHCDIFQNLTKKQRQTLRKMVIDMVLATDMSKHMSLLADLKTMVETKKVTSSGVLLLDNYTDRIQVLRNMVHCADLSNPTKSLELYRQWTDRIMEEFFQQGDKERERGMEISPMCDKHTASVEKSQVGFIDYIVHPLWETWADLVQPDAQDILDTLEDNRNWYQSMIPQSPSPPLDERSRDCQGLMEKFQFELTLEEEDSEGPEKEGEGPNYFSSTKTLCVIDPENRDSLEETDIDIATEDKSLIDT
Experimental: In order to analyse the biochemical properties of the DPD gene product, crude cell extracts were prepared from one liter cultures of 10 DAB which had been transformed with either pADNS or pADPD.
(§1) Yeast cells were grown at 30° C. for 36 hours in one liter cultures of synthetic media (SC-leucine). Cells were harvested and washed with buffer C ([…], 0.1 mM MgCl2, 0.1 mM EGTA, 1 mM β-mercaptoethanol), were resuspended in 30 ml buffer C with 50 μl 1M PMSF, and were disrupted with a French press. The extracts were centrifuged at 1,600 g for 10 min and the supernatants were spun at 18,000 g for 90 min (4° C.). The supernatant was assayed for phosphodiesterase activity (Sass, P., et al., Proc. Natl. Acad. Sci. USA 83:9303 (1986); Nikawa, J., et al., Mol. Cell. Biol. 7:3629 (1987)). All the reactions contained Tris-HCl (pH7.5) (100 mM), cell extract (50 μg protein/ml), 5′-nucleotidase (Sigma, 20 ng/ml) and 10 MM Mg^2+ (unless otherwise stated) and the indicated cyclic nucleotide concentrations. Assays for the cGMP hydrolysis used 1.5 μM cGMP. […] Reactions were incubated for 10 min at 30° C. and stopped with 5× stop solution (250 mM EDTA, 25 mM AMP, 100 mMcAMP).
This example illustrates the use of the genes and cells described in Example 1 to identify chemical compounds which inhibit the activity of a known enzyme, the rat DPD phosphodiesterase. To test the efficiency of known inhibitory compounds, cell free extracts were made as described in Phosphodiesterase Assays. Yeast cells deficient in endogenous phosphodiesterase (10 DAB), and expressing the rat DPD or yeast PDE2 genes from the described expression vector, were used. One liter cultures were harvested, washed in buffer C (20 mM MES/0.1 mM MgCl2/0.1 mM EGTA/1 mM 2-mercaptoethanol), resuspended in buffer C containing 1.5 mM phenylmethylsulfonyl fluoride, and disrupted in a French press at 4° C. Cell extracts were clarified at 100 g for 10 minutes and at 18000 g for 90 minutes. […] The cytosolic fraction was assayed in the presence or absence of inhibitory compounds. […] The percent inhibition represents the decrease in phosphodiesterase activity relative to measurements made in the absence of inhibitors.

yeast PDE2 = target: T2, yeast PDE2 (Saccharomyces cerevisiae, UniProt P06776); assay: Phosphodiesterase activity assay, cell free extract of 10 DAB yeast expressing yeast PDE2; assay type: biochemical, S. cerevisiae
T2 construct: made in house; host or cells: S. cerevisiae strain 10 DAB (pde1- pde2-), cell free extract
Experimental: as §1
This example illustrates the use of the genes and cells described in Example 1 to identify chemical compounds which inhibit the activity of a known enzyme, the rat DPD phosphodiesterase. To test the efficiency of known inhibitory compounds, cell free extracts were made as described in Phosphodiesterase Assays. Yeast cells deficient in endogenous phosphodiesterase (10 DAB), and expressing the rat DPD or yeast PDE2 genes from the described expression vector, were used. One liter cultures were harvested, washed in buffer C (20 mM MES/0.1 mM MgCl2/0.1 mM EGTA/1 mM 2-mercaptoethanol), resuspended in buffer C containing 1.5 mM phenylmethylsulfonyl fluoride, and disrupted in a French press at 4° C. Cell extracts were clarified at 100 g for 10 minutes and at 18000 g for 90 minutes. […] About 10^4 cpm were obtained for 10 minutes reactions and backgrounds (phosphodiesterase deficient-yeast or no extract) were about 300 cpm. The cytosolic fraction was assayed in the presence or absence of inhibitory compounds. […] The percent inhibition represents the decrease in phosphodiesterase activity relative to measurements made in the absence of inhibitors.

[2] = test system: 10 DAB cells expressing DPD; assay: Heat shock survival of 10 DAB yeast cells expressing DPD; assay type: cell-based, S. cerevisiae; details: 100 μM, 40 minutes pretreatment, heat shock 50° C. 30 minutes
Description: This example illustrates the use of the genes and methods described to identify chemical compounds which inhibit the function of the encoded mammalian proteins expressed in yeast, even when the function of that protein is not known. 10DAB cells, which are phosphodiesterase deficient, are sensitive to heat shock. As already discussed, when these cells express DPD, they become resistant to heat shock. […] 10 DAB cells expressing DPD were maintained in rich medium (YPD) for three days at stationary phase. […] Control cultures were not treated with any inhibitor. These cultures were then heat shocked in glass tubes at 50° C. for 30 minutes. One microliter of each culture was plated.

T2 sequence (P06776 whole entry): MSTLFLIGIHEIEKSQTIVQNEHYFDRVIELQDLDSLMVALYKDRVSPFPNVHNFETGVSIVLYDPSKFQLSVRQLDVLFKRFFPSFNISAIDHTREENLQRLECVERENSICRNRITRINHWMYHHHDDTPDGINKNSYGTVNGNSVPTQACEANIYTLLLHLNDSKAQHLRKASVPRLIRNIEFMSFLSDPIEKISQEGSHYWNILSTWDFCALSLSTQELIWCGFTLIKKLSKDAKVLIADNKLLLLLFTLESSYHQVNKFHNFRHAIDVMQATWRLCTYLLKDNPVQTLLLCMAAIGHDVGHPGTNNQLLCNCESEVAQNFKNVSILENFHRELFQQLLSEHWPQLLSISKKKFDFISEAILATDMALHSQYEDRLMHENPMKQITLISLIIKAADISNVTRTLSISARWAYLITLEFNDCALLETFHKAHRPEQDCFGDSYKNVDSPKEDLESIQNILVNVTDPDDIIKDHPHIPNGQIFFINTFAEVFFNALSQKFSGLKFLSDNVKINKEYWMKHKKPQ

## CC(C)Cn1c(=O)n(C)c(=O)c2[nH]cnc21 [IBMX]
[1]; agent 250 μM
  Inhibition (%): 87. %
Yeast PDE2; agent 250 μM
  Inhibition (%): 0.0%

## CCCCOc1cc(CC2CNC(=O)N2)ccc1OC (stereo not drawn) [R020 1724]
[1]; agent 0.1 μM
  Inhibition (%): 35. %
[1]; agent 1.0 μM
  Inhibition (%): 52. %
[1]; agent 10.0 μM
  Inhibition (%): 79. %
[1]; agent 100.0 μM
  Inhibition (%): 92. %
[1]; cell extract, summary of Example 3
  Inhibition of enzymatic activity of the rat DPD gene product (in words): most effective inhibitors of DPD activity; also recorded: inhibited
Yeast PDE2; agent 100 μM
  Inhibition (%): 3.0%

## COc1ccc(C2CNC(=O)C2)cc1OC1CCCC1 (stereo not drawn) [Rolipram]
[2]
  Heat shock sensitivity after treatment (inhibition of DPD function): much more sensitive to heat shock; also recorded: suppression of heat shock resistance
Yeast PDE2; agent 100 μM
  inhibition at 100 µM: 0%

## Cn1c(=O)c2[nH]cnc2n(C)c1=O [Theophylline]
Yeast PDE2; agent 250 μM
  inhibition at 250 µM: 0%

## Nc1nc2c(ncn2[C@@H]2O[C@@H]3COP(=O)(O)O[C@H]3[C@H]2O)c(=O)[nH]1 [cGMP]
[1]; 5 μM cAMP, cGMP 100 fold over substrate (up to 500 μM)
  Inhibition of cAMP phosphodiesterase activity by cGMP: unable to inhibit
